Measured values reported in ChEMBL document CHEMBL1201862, “PubChem BioAssay data set” (2004).
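Where inhibition never reached the appropriate level, the endpoint shown equals the highest concentration tested. Otherwise, values were interpolated linearly from a five-concentration, 48-hour dose response in 96-well plates. GI50 is the concentration that inhibits growth by half.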 Calls of active or inactive are those of the source. Cut-off read from the data, not from the text of the source: active = GI50 up to about 1.1 µM and inactive = higher.

Key:
Assay in all cases: growth of human tumour cells (NCI), 48 h
[1] = tested on: OVCAR-3
[2] = tested on: SN12C
[3] = tested on: NCI-H226
[4] = tested on: UO-31
[5] = tested on: UACC-62
[6] = tested on: SF-539
[7] = tested on: LOX IMVI
[8] = tested on: HCT-116
[9] = tested on: HCC 2998
[10] = tested on: SF-268
[11] = tested on: 786-0
[12] = tested on: SK-MEL-28
[13] = tested on: BT-549
[14] = tested on: HOP-92
[15] = tested on: RXF 393
[16] = tested on: DU-145
[17] = tested on: SNB-75
[18] = tested on: HCT-15
[19] = tested on: MDA-N

SMILES: Oc1c(C(Nc2cccc3cccnc23)c2ccccc2)ccc2cccnc12 (configuration not stated)
- GI50 [1]: 5.77 µM (inactive)
- GI50 [2]: 9.48 µM (inactive)
- GI50 [3]: 1.73 µM (inactive)
- GI50 [4]: 4.11 µM (inactive)
- GI50 [5]: 21.6 µM (inactive)
- GI50 [6]: 3.65 µM (inactive)
- GI50 [7]: 3.94 µM (inactive)
- GI50 [8]: 5.6 µM (inactive)
- GI50 [9]: 14.2 µM (inactive)
- GI50 [10]: 4.21 µM (inactive)
- GI50 [11]: 4.07 µM (inactive)

SMILES: C[N+]1(CCN=C=NC2CCCCC2)CCOCC1
- GI50 [12]: > 100 µM (inactive)
- GI50 [13]: > 100 µM (inactive)
- GI50 [1]: > 100 µM (inactive)
- GI50 [2]: 22.9 µM (inactive)
- GI50 [3]: > 100 µM (inactive)
- GI50 [14]: > 100 µM (inactive)
- GI50 [4]: > 100 µM (inactive)
- GI50 [15]: > 100 µM (inactive)
- GI50 [5]: > 100 µM (inactive)
- GI50 [16]: > 100 µM (inactive)
- GI50 [6]: > 100 µM (inactive)
- GI50 [17]: > 100 µM (inactive)
- GI50 [18]: > 100 µM
- GI50 [7]: > 100 µM (inactive)
- GI50 [8]: > 100 µM (inactive)
- GI50 [10]: > 100 µM (inactive)
- GI50 [11]: > 100 µM (inactive)

SMILES: COC(=O)NC1(NC(=O)OC)NC(=O)c2cc(OC)c(OC)cc2N1
- GI50 [12]: 29.3 µM (inactive)
- GI50 [1]: 21.2 µM (inactive)
- GI50 [2]: > 100 µM (inactive)
- GI50 [4]: 40 µM (inactive)
- GI50 [5]: 30.1 µM (inactive)
- GI50 [16]: 48.6 µM (inactive)
- GI50 [19]: 3.83 µM (inactive)
- GI50 [6]: 25.6 µM (inactive)
- GI50 [18]: 13.2 µM
- GI50 [7]: 62.1 µM (inactive)
- GI50 [8]: 29.8 µM (inactive)
- GI50 [10]: 78.7 µM (inactive)
- GI50 [11]: 32.6 µM (inactive)

SMILES: O=C(C#Cc1ccccc1)C1=Cc2ccccc2OC1
- GI50 [12]: 7.53 µM (inactive)
- GI50 [13]: 2.16 µM (inactive)
- GI50 [1]: 2.35 µM (inactive)
- GI50 [2]: 3.85 µM (inactive)
- GI50 [3]: 2.55 µM (inactive)
- GI50 [4]: 2.06 µM (inactive)
- GI50 [15]: 3 µM (inactive)
- GI50 [5]: 1.94 µM (inactive)
- GI50 [16]: 5.53 µM (inactive)
- GI50 [6]: 1.93 µM (inactive)
- GI50 [17]: 6.14 µM (inactive)
- GI50 [18]: 2.37 µM
- GI50 [7]: 0.783 µM (active)
- GI50 [8]: 1.92 µM (inactive)
- GI50 [9]: 7.38 µM (inactive)
- GI50 [10]: 5.5 µM (inactive)
- GI50 [11]: 2.4 µM (inactive)

SMILES: CC(=O)O[C@H]1C(=O)[C@@]2(C)[C@H]([C@H](OC(=O)c3ccoc3)[C@]3(O)C[C@H](OC(=O)[C@H](O)[C@@H](NC(=O)c4ccccc4)c4ccccc4)C(C)=C1C3(C)C)[C@]1(OC(C)=O)CO[C@@H]1C[C@@H]2O
- GI50 [12]: > 12.5 µM (inactive)
- GI50 [13]: 0.615 µM (active)
- GI50 [1]: 0.0296 µM (active)
- GI50 [3]: 0.11 µM (active)
- GI50 [14]: > 12.5 µM (inactive)
- GI50 [4]: > 8.91 µM (inactive)
- GI50 [15]: 0.277 µM (active)
- GI50 [5]: 0.053 µM (active)
- GI50 [16]: 0.352 µM (active)
- GI50 [6]: 0.0286 µM (active)
- GI50 [17]: 0.141 µM (active)
- GI50 [18]: 4.24 µM
- GI50 [7]: 0.032 µM (active)
- GI50 [8]: 0.0186 µM (active)
- GI50 [9]: 0.116 µM (active)
- GI50 [10]: 0.0583 µM (active)
- GI50 [11]: 0.38 µM (active)

SMILES: Clc1ncc(Cl)c(Cl)n1
- GI50 [12]: 3.42 µM (inactive)
- GI50 [1]: 6.5 µM (inactive)
- GI50 [2]: 1.73 µM (inactive)
- GI50 [3]: 4.85 µM (inactive)
- GI50 [14]: 1.81 µM (inactive)
- GI50 [4]: 3.17 µM (inactive)
- GI50 [15]: 2.05 µM (inactive)
- GI50 [5]: 1.91 µM (inactive)
- GI50 [16]: 11.8 µM (inactive)
- GI50 [19]: 3.37 µM (inactive)
- GI50 [6]: 8.97 µM (inactive)
- GI50 [17]: 2.84 µM (inactive)
- GI50 [18]: 2.24 µM
- GI50 [7]: 1.17 µM (inactive)
- GI50 [8]: 2.82 µM (inactive)
- GI50 [9]: 4.21 µM (inactive)
- GI50 [10]: 9.12 µM (inactive)
- GI50 [11]: 1.99 µM (inactive)

SMILES: CC1=NN(c2cccc(Cl)c2)C2(C1=Cc1ccc(O)cc1)C(Cl)C(=O)N2c1nc2ccccc2s1 (configuration not stated)
- GI50 [12]: 29 µM (inactive)
- GI50 [1]: 26 µM (inactive)
- GI50 [3]: 27.2 µM (inactive)
- GI50 [14]: 15.1 µM (inactive)
- GI50 [4]: 12.9 µM (inactive)
- GI50 [15]: 20.5 µM (inactive)
- GI50 [16]: 21.5 µM (inactive)
- GI50 [19]: 23.3 µM (inactive)
- GI50 [6]: 35.4 µM (inactive)
- GI50 [18]: 15.5 µM
- GI50 [7]: 22.1 µM (inactive)
- GI50 [8]: 15.9 µM (inactive)
- GI50 [9]: 18.8 µM (inactive)
- GI50 [10]: 19.6 µM (inactive)
- GI50 [11]: 24.3 µM (inactive)

SMILES: N#CC(C#N)=C/C=C/c1c(Cl)cccc1Cl
- GI50 [12]: 1.64 µM (inactive)
- GI50 [1]: 2.13 µM (inactive)
- GI50 [2]: 1.8 µM (inactive)
- GI50 [3]: 2.45 µM (inactive)
- GI50 [14]: 2.42 µM (inactive)
- GI50 [4]: 1.84 µM (inactive)
- GI50 [15]: 1.58 µM (inactive)
- GI50 [5]: 1.5 µM (inactive)
- GI50 [16]: 1.71 µM (inactive)
- GI50 [19]: 1.62 µM (inactive)
- GI50 [6]: 1.28 µM (inactive)
- GI50 [17]: 2.84 µM (inactive)
- GI50 [18]: 1.91 µM
- GI50 [7]: 1.73 µM (inactive)
- GI50 [8]: 1.34 µM (inactive)
- GI50 [9]: 1.84 µM (inactive)
- GI50 [10]: 1.92 µM (inactive)
- GI50 [11]: 1.71 µM (inactive)

SMILES: COc1ccc(CNc2nc3ccc(C(F)(F)F)cc3nc2-c2ccccc2)cc1OC
- GI50 [12]: > 100 µM (inactive)
- GI50 [1]: 60.8 µM (inactive)
- GI50 [2]: 46.2 µM (inactive)
- GI50 [3]: > 100 µM (inactive)
- GI50 [14]: 2.9 µM (inactive)
- GI50 [4]: 47.6 µM (inactive)
- GI50 [15]: 8.89 µM (inactive)
- GI50 [5]: 30.1 µM (inactive)
- GI50 [6]: 54.3 µM (inactive)
- GI50 [17]: 11 µM (inactive)
- GI50 [18]: 25.1 µM
- GI50 [7]: 36.8 µM (inactive)
- GI50 [8]: 20.7 µM (inactive)
- GI50 [9]: 13.9 µM (inactive)
- GI50 [10]: 63.2 µM (inactive)
- GI50 [11]: > 10 µM (inactive)
